Counter-ions that a name gives are not always drawn.
Columns and labels:
[1] = system: LDLR mRNA expression in HepG2 cells; assay: LDLR mRNA expression in HepG2 cells, Compounds 162 and 163, real-time RT-PCR (Example 13); format: cell-based, human; settings: FIGS. 6A and 6B
Protocol: In FIG. 6A HepG2 cells were exposed to Compounds 162 and 163 at the indicated concentrations (x-axis) for 24 h and plotted against normalized LDLR mRNA levels (fold of control in absence of compound). In FIG. 6B, HepG2 cells were treated with 20 μM of each compound for the indicted times (x-axis) and plotted against normalized LDLR mRNA levels (fold of control at 24 h).
The time- and dose-dependent effects of the enantiomers of Compound 127 (Compounds 162 and 163) on LDLR mRNA expression were examined using quantitative real-time RT-PCR assays (FIGS. 6A and 6B). HepG2 cells were treated with Compound 162 and Compound 163 at indicated concentrations for various times. Total RNA was isolated and […] was used to generate cDNA in a reaction containing random primers and M-MLV at 37° C. for 1 h in a volume of 25 μL. Real-time PCR was performed on the cDNA using MCEP REALPLEX 2 SYSTEM (Eppendorf) and Universal MasterMix (Applied Biosystems). Human LDLR and GAPDH Pre-Developed TaqMan Assay Reagents (Applied Biosystems) were used to assess the levels of mRNA expressions in HepG2. The levels of LDLR mRNA were normalized to that of GAPDH. Each RNA samples was assayed in triplicate. The fold activity was calculated by dividing mRNA abundance in compound treated cells with that of control.

[2] = system: LDLR protein expression in HepG2 cells; assay: Western blot of LDLR protein in HepG2 cells, Compounds 162 and 163; format: cell-based, human; settings: 20 μM, 16 or 24 hours, FIG. 7
Protocol: FIG. 7 is a Western blot analysis of LDLR and PCSK9 expression in HepG2 cells. HepG2 cells seeded in 12-well culture plates were cultured in 0.5% FBS MEM overnight. Compounds 162 and 163 at 20 μM were added to cells for the indicated times. Untreated and treated cells were harvested at the same indicated time points. Total cell lysates were isolated and 50 μg per sample was analyzed for LDLR and PCSK9 protein abundance by western blotting. The membrane was reprobed with anti-actin antibody to examine the equal loading of cell lysates.
Chicken anti-LDLR was purchased from Abcam. HepG2 cells cultured in 60-mm dishes were incubated overnight in medium containing 0.5% fetal bovine serum prior to the addition of compounds at 20 μM concentration. After 16 or 24 hours of treatment, total cell lysate was isolated and 50 μg of protein was separated on SDS-PAGE and transferred to nitrocellulose membrane for immunoblotting with anti-LDLR.

[3] = in vivo; parameters: species or system Golden Syrian hamsters; settings: male, Golden Syrian, hamster, po
Protocol: For testing the efficacy of Compound 141 (phosphate salt of Compound 127) or its enantiomers (Compound 162/Compound 163) the following suspension formulation procedure was developed to make 100 ml of Compound 141 in suspension at 10 mg/ml concentration in 0.1 M tartaric buffer pH. 3 containing 0.5% hydroxypropylcellulose H-type (HPC-H):
Step 1: 1.50 g L-(+)-tartaric acid was dissolved in 100 mL water to prepare a tartaric acid solution. The solution was adjusted to pH 3 with 1.2 mL 5N NaOH solution to provide the tartaric acid buffer (100 mM). Step 2: 0.5 g HPC-H powder was added to 10 mL tartaric acid buffer (100 mM) at 50° C. The slurry was stirred for 30 minutes, and then diluted with 90 mL tartaric acid buffer (100 mM) at room temperature to provide 0.5% HPC-H. Agitation was continued until all particles were dissolved and the solution was completely free of gels. Step 3: 1.20 g Compound 141 (or Compound 162 or Compound 163) and 1.20 g mannitol were mixed and ground through a 120 mesh sieve, then the mixture was ground slightly again. The mixture was dispersed in 100 mL 0.5% HPC-H-L-(+)-Tartaric acid buffer (pH=3), then stirred until the drug dispersed evenly. The final pH was 2.6. All the above procedures were completed at room temperature (˜25° C.). The final concentration of Compound 141 was 10 mg/ml after correction of the salt weight.
The pharmacokinetic profile and bioavailability of Compound 141 (phosphate salt of Compound 127) in male Wistar rats following single intravenous (iv) and oral administration (p.o.) were measured according to the procedures of Example 4 and are summarized in Table 11. The pharmacokinetic profile of Compound 162 in male Golden Syrian masters following oral administration (pox) is summarized in Table 12.

[4] = system: liver LDLR mRNA; assay: Liver LDLR mRNA in treated hamsters, quantitative real-time RT-PCR; format: in vivo, hamster; settings: 100 mg/kg, 2 weeks, 10 animals per group, p<0.001
Protocol: (§1) To directly correlate the LDL-C and VLDL-C lowering effects of Compound 162 with its ability to upregulate hepatic LDLR expression and down-regulation of PCSK9, at the end of treatment, animals from vehicle and Compound 162 100 mg/kg treated groups were euthanized and levels of liver LDLR and PCSK9 mRNA were individually assessed by quantitative real-time RT-PCR using hamster specific probes. The results represent mean±SEM of 10 animals per group. The liver expression of LDLR mRNA was increased 1.7-fold over control by Compound 162 treatment (p<0.001). […] Thus, these in vivo data confirmed the in vitro effects of Compound 162 in upregulating LDLR mRNA while inhibiting PCSK9 mRNA expressions.

[5] = system: liver PCSK9 mRNA; assay: Liver PCSK9 mRNA in treated hamsters, quantitative real-time RT-PCR; format: in vivo, hamster; settings: 100 mg/kg, 2 weeks, 10 animals per group
Protocol: as §1

[6] = system: cholesterol 7α-hydroxylase (CYP7A) mRNA; assay: Liver cholesterol 7α-hydroxylase (CYP7A) mRNA in treated hamsters, real-time PCR; format: in vivo, hamster; settings: 100 mg/kg, 2 weeks, p<0.01
From the text: The conversion of cholesterol to bile acids by the liver and their subsequent excretion in the feces represent a major route for the elimination of sterol from the body. The cholesterol 7α-hydroxylase is the first and rate-limiting enzyme in the bile acid biosynthetic pathway. The measurement of the mRNA expression level of cholesterol 7α-hydroxylase (CYP7A) is widely used as a means to monitor bile acid synthesis in liver. To assess the effect of Compound 162 on liver bile acid synthesis, the mRNA levels of CYP7A were measured in vehicle and liver samples from hamsters treated with 100 mg/kg Compound 162 by real-time PCR as described above.

SMILES: COc1cc2c(cc1OC)C1Cc3ccc(OC)c(OS(=O)(=O)c4cccc(F)c4)c3CN1CC2 (single isomer, unassigned) [Compound 162, 2,3,10-Trimethoxy-5,6,7,8,13,13a-hexahydroisoquinolino[2,1-b]isoquinolin-9-yl 3-fluorobenzenesulfonate phosphate Salt (Enantiomer having positive optical rotation)]
- LDLR mRNA expression [1]: upregulate LDLR mRNA expression
- LDLR mRNA expression, comparison of the enantiomers [1]: more active than Compound 163
- LDLR mRNA and protein expression [2]: significantly enhance
- AUC(0-inf) ([3]; 15 mg/kg): 914 ng·h/mL
- AUC(0-t) ([3]; 15 mg/kg): 889 ng·h/mL
- Cmax ([3]; 15 mg/kg): 195 ng/mL
- MRT inf ([3]; 15 mg/kg): 6.95 h
- MRT last ([3]; 15 mg/kg): 6.06 h
- Tmax ([3]; 15 mg/kg): 0.5 h
- t1/2z ([3]; 15 mg/kg): 5.21 h
- AUC(0-inf) ([3]; 30 mg/kg): 2110 ng·h/mL
- AUC(0-t) ([3]; 30 mg/kg): 2020 ng·h/mL
- Cmax ([3]; 30 mg/kg): 848 ng/mL
- MRT inf ([3]; 30 mg/kg): 5.17 h
- MRT last ([3]; 30 mg/kg): 3.81 h
- Tmax ([3]; 30 mg/kg): 0.5 h
- t1/2z ([3]; 30 mg/kg): 6.85 h
- liver expression of LDLR mRNA [4]: 1.7 fold over control
- liver mRNA levels of PCSK9 [5]: 57 % of vehicle control
- CPY7A mRNA expression in liver versus vehicle control [6]: 2.7 fold

Reference: patent US20110009628A1, “Compounds and Compositions for Modulating Lipid Levels and Methods of Preparing Same” (priority 2009, published 2011)
